In PubChem BioAssay (NCI):
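Tested at 5 concentrations; 48 h exposure; 96-well plates; endpoints linearly interpolated, else capped at highest concentration. Abbreviation: GI50, concentration required for 50% inhibition of growth. TGI denotes the concentration required for complete inhibition of growth.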

Tests used:
Assay in all cases: inhibition of tumour cell growth, NCI panel, 48 h
[1] = system: HCT-15 colon
[2] = system: SF-295 CNS
[3] = system: SK-MEL-2 melanoma
[4] = system: NCI/ADR-RES ovarian
[5] = system: M14 melanoma
[6] = system: HOP-62 NSCLC
[7] = system: K-562 leukemia
[8] = system: IGROV1 ovarian
[9] = system: SR leukemia
[10] = system: MDA-MB-435

Row | SMILES | GI50 [1] [nM] | TGI [1] [µM] | GI50 [2] [nM] | TGI [2] [µM] | GI50 [3] [nM] | TGI [3] [µM] | GI50 [4] [nM] | TGI [4] [µM] | GI50 [5] [nM] | TGI [5] [µM] | GI50 [6] [nM] | TGI [6] [µM] | GI50 [7] [nM] | TGI [7] [µM] | GI50 [8] [nM] | TGI [8] [µM] | GI50 [9] [nM] | TGI [9] [µM] | TGI [10] [µM] | GI50 [10] [nM]
1 | COc1ccc(-c2nc(/C=C3\SC(=NCc4ccccc4)NC3=O)c3ccccn23)cc1 | 1470 | 2.18 | 2250 | 7.62 | 2190 | 7.25 | 1390 | 5.76 | 1120 | 2.42 | 1540 | 3 | 2760 | > 100 | 1470 | 4.22 | 2500 | > 100 |  | 
2 | C[N+](C)(C)CC1CCCC1=O (stereo not drawn) |  | 7.44 |  | 36.4 |  | 12.2 |  | 4.05 |  | 2.61 |  | > 68 |  | > 100 |  | 32.3 |  |  | 3.22 | 
3 | CC1=C(CC(=O)c2cccc([N+](=O)[O-])c2)C(=O)c2ccccc2C1=O | 3790 | 19.5 | 17700 | 36.4 |  |  | 3380 | 20.6 | 6660 | 22.3 | 4050 | 16.1 | 7250 | 38.9 | 4620 | 29 | 3210 | 12.6 | 4.04 | 2130
4 | C#CCNC(=O)[C@H](CC)[C@H]1CC[C@H](C)[C@H]([C@@H](C)[C@H](O)[C@H](C)C(=O)[C@H](CC)C2O[C@]3(C=CC(=O)[C@]4(CC[C@@](C)([C@H]5CC[C@](O)(CC)[C@H](C)O5)O4)O3)[C@H](C)C[C@@H]2C)O1 (stereo partly drawn) | 2610 | 7.81 | 1570 | 3.56 | 2440 | 7.31 | 2260 | 7.72 | 1860 | 4.57 | 1990 | 4.91 |  |  | 2030 | 7.92 | 1610 | 5.37 |  | 
5 | CN(CCNCc1ccccn1)CCNCc1ccccn1 | 2960 | 12.6 | 2230 | 5.69 |  |  | 3570 | > 100 | 2260 | 5.93 | 3850 | 22.6 | 3580 | > 100 | 3230 | 12.6 | 3710 | 43 | 4.93 | 2210
6 | N#CCCN1C/C(=C/c2ccc(Cl)cc2)C(=O)/C(=C/c2ccc(Cl)cc2)C1 | 412 | 1.78 |  |  | 2190 | 4.88 | 3400 | 52.2 | 1800 | 3.99 | 516 | 2.94 | 378 | > 100 | 1750 | 3.95 |  |  | 2.99 | 1370
7 | COC1C(O)C(CO)OC(OC2C(O)COC(OC3C(C)OC(OC4C(O[C@H]5CC[C@@]6(C)C(CC=C7[C@H]6CCC68C(=O)O[C@@](C)(CCCC(C)C)[C@H]6[C@@H](OC(C)=O)C[C@@]78C)C5(C)C)OCC(OS(=O)(=O)O)C4O)C(OC4OCC(O)C(O)C4O)C3O)C2O)C1O (stereo partly drawn) | 177 | 0.454 | 158 | 0.389 | 233 | 2.47 | 207 | 0.63 | 258 | 0.894 |  |  | 92.3 | 0.242 | 178 | 0.499 | 62.8 | 0.238 | 0.532 | 196
